“Also recorded” adds a separate entry of the source.
How the values were obtained:
HUVEC [1] = test: HUVEC proliferation post-radiation (BrdU incorporation); format: cell-based, human; conditions: treated 48 hours before 10 Gy, over 1 week (FIG. 14)
Protocol: FIG. 14. TSP1 and CD47 antibodies or antisense suppression of CD47 maintain proliferation of irradiated HUVEC. HUVEC were plated in 96-well plates in growth medium and treated with CD47 morpholino (FIG. 14A; *p<0.05, #p<0.01) TSP1, or CD47 antibodies (FIG. 14B; *p<0.05, #p<0.01) and exposed to 10 Gy irradiation 48 hours later. Cell proliferation at the indicated times post-radiation was determined by intracellular BrdU incorporation. Experiments were repeated 3 times, and results presented as the mean±SD.
FIG. 15. HUVEC protected by radioprotective agents are both viable and proliferate at a better rate than untreated cells in culture. Proliferation was assessed by quantifying incorporation of bromodeoxyuridine (BrdU) into newly synthesized DNA using a BrdU Cell Proliferation Assay. HUVEC were seeded into 96 well plates for 24 hours at 37° C., then treated with either antibody A6.1 or B6H12 or peptide 7N3. The treated cells were irradiated at 40 Gy 1 hour later. Control and irradiated plates were assayed for BrdU uptake over 96 hours post-radiation. The assay was performed according to the manufacturer's protocol, and the plates were read at 420 nm.
Cell proliferation assay: Proliferation was assessed by quantifying incorporation of bromodeoxyuridine (BrdU) into newly synthesized DNA using a BrdU Cell Proliferation Assay (Calbiochem, La Jolla, Calif.). Primary murine wild type, TSP1, TSP2, and CD47 null lung endothelial cells were seeded into 96 well plates at 5×10^4 cells/well density. After 24 hours incubation at 37° C. treatment groups were irradiated at 40 Gy. Control and irradiated plates were assayed for BrdU uptake over 24 hours starting at 48 to 168 hours post-radiation. The assay was performed according to the manufacturer's protocol, and the plates were read at 420 nm.
Proliferative capacities were also determined in endothelial cells exposed to high doses of radiation of 40 Gy. […] The assay was performed according to the manufacturer's protocol, and the plates were read at 420 nm.

C57BL/6 wild type mice = test: Hindlimb irradiation (25 Gy), skin reaction / tissue necrosis grading and histology; format: in vivo, mouse; conditions: 10 μM in 750 μl PBS local-regional, 48 hours before 25 Gy, 8 weeks
Protocol: FIG. 16. CD47 suppression using an antisense morpholino minimizes tissue damage from radiation injury. Age and sex matched C57BL16 wild type mice underwent a one-time treatment of the right hindlimb with either a murine specific CD47 morpholino oligonucleotide (10 μM in 750 μl PBS) or 750 μl of PBS injected local-regionally to the muscle and soft tissues. […] At the end of 8 weeks, there was a considerable amount of alopecia, dry desquamation and early signs of fibrotic contractures within the irradiated hind limbs of mice receiving only PBS. […] The tissue necrosis grading scores for 8 animals are presented as mean±SD (FIG. 16B) and show a similar trend throughout the 8-week observation period.
Skin reaction: Skin reaction following hind limb irradiation was quantified every week following treatment for 8 weeks using a previously described grading system (Flanders et al., Am J Pathol 163:2247-2257, 2003). The grading system consisted of 5 categories: normal, hair loss, erythema, dry desquamation and moist desquamation/ulceration.
Irradiation of mice: Age and sex matched wild type mice underwent local irradiation to the right hindlimb as described in Example 1. Forty-eight hours prior to irradiation, animals received the CD47 morpholino (SEQ ID NO: 4), a control morpholino (SEQ ID NO: 5) (both at 10 μM in […] PBS via intramuscular injection), vehicle, or no treatment to the hind limb. Under 1% isoflurane inhalation anesthesia, the animals were placed in customized Lucite jigs that allow for immobilization and selective irradiation of the right hindlimb. A single radiation dose of 25 Gy was delivered by a Therapax® DXT300 X-ray irradiator (Pantak, Inc., East Haven, Conn.) using 2.0-mm A1 filtration (300 kVp) at a dose rate of 2.53 Gy/min. Care was taken to avoid irradiation of other body parts by using lead shields specifically designed as a part of the jigs. After irradiation, the animals were placed in cages as indicated above and observed weekly. Skin reaction after hind limb irradiation was quantified every week after treatment for 8 weeks using a previously described grading system (Flanders et al., Am J. Pathol 163:2247-2257, 2003). Briefly, tissue necrosis grading system consists of 5 categories: normal, hair loss, erythema, dry desquamation, and moist desquamation/ulceration.
Age and sex matched C57BL16 wild type mice underwent a one-time treatment of the right hindlimb with the CD47 antisense morpholino oligonucleotide (10 μM in 750 μl PBS), a mismatched control morpholino, or vehicle (PBS) injected local-regionally to the muscle and soft tissues.

HUVEC [2] = test: HUVEC cell viability after irradiation (MTT / CellTiter 96); format: cell-based, human; conditions: for survival / cell death of irradiated HUVEC (MTT): 40 Gy or no radiation, 48 hours post radiation (FIG. 22); for cell viability after graded doses of peptide and radiation: peptide 1 hour before 0, 10, 20, 30, 40 Gray, 72 hours (FIG. 12)
Protocol: FIG. 11. Radioprotective activities of TSP1 and CD47 antibodies, a CD47 binding peptide from TSP1, and a CD47 morpholino. HUVEC were plated on 96-well plates in standard growth medium. Cells were treated with TSP1 (FIG. 11A) or CD47 (FIG. 11B) monoclonal antibodies (clone A6.1 or B6H12, respectively) and received the indicated doses of radiation 24 hours after addition of the antibodies. Cell (mitochondrial) viability was measured 48 hours post irradiation using an MTT assay. Cells were treated using peptide 7N3 (FIG. 11C) and control peptide 604 (FIG. 11D), subjected to the same experimental conditions, and assayed via MTT. […] Experiments were repeated 3 times and results presented as the mean±SD.
(§1) FIG. 12. Peptides 7N3 and C6d are radioprotective to HUVEC in culture. Human umbilical vein endothelial cells (HUVEC) grown in EGM medium in 96-well plates were treated with graded doses of a peptide agent, as indicated. One hour later, cells were exposed to a single dose of gamma radiation (0, 10, 20, 30, and 40 Gray) and allowed to incubate 72 hours at 37° C. Cell viability was determined with the CellTiter 96 AQueous One Solution Cell Proliferation Assay.
(§2) Cell Viability Assay. HUVEC were plated at a density of 5000 cells/well in 96 well plates (Nunc), and were treated 24 hours later with either the indicated doses of a CD47 antibody (B6H12), a TSP1 antibody (A6.1), the CD47-binding peptide 7N3, or control peptide 604. One hour later the cells were exposed to a single dose of gamma radiation (0, 10, 20, 30, and 40 Gy) and allowed to incubate another 72 hours at 37° C. Experiments done with B16E10 melanoma cells in Example 4 were done in a similar manner treating either 1 hour prior to a single dose of radiation (10 Gy) with peptide 7N3 or 48 hours prior with CD47 morpholino. Cell viability was determined using the CellTiter 96 Aqueous One Solution cell proliferation assay (Promega, Madison, Wis.) as per the manufacturer's instructions and absorbance at 490 nm was determined using an MR580 Microelisa AutoReader (Dynatech, Alexandria, Va.). The same assay was performed on HUVEC using either the CD47 or CD36 morpholino, but 48 hours were allowed to pass prior to radiation (0 or 40 Gy) to allow for suppression of the target proteins. Similarly, control experiments were performed using the nitric oxide synthase (NOS) inhibitor L-NAME, a membrane permeable cGMP analogue, 8-Bromo cGMP, or the NO donor DETA/NO.
as §1, with “In an additional experiment to test the effect of” for “FIG. 12. Peptides 7N3 and C6d are”, “peptides, human” for “to HUVEC in culture. Human”

HAVSMC = HAVSMC cell viability after irradiation (CellTiter 96); format: cell-based, human; conditions: greater doses of radiation (FIG. 13)
Protocol: FIG. 13. Peptide 7N3 is radioprotective to HAVSMC in culture. Human aortic vascular smooth muscle cells (HAVSMC) were also subjected to the CellTiter 96 Aqueous One Solution cell proliferation assay (Promega, Madison, Wis.).
as §2, with “Similarly, control experiments were performed using the nitric oxide synthase (NOS) inhibitor L-NAME, a membrane permeable cGMP analogue, 8-Bromo cGMP, or the NO donor DETA/NO.” left out

B16F10 melanoma cells = test: B16F10 melanoma cell viability after irradiation in vitro; format: cell-based, mouse; conditions: 7N3 1 hour or morpholino 48 hours before 10 Gy, versus untreated cells
Protocol: FIG. 19. CD47 suppression enhances re-growth delay in irradiated syngeneic B16 melanoma and squamous cell carcinoma tumors but increases radioresistance of B16 cells in vitro. C57BL/6 mice were injected with 1×10^6 B16 mouse melanoma cells into their right hindlimbs. Five days later, the mice were randomized into 4 groups (12 mice in each group) where they either received injections of CD47 morpholino (10 μM) in sterile PBS, PBS, or no injection. The two groups receiving injections were then subjected to radiation (10 Gy) to the effected hindlimb 48 hours later. The other two groups served as controls and consisted of tumor alone or tumor subjected to only the morpholino. Tumors were followed post-radiation for 30 days, measuring their volume every 6 days (FIG. 19A). […] Cell (mitochondrial) viability was measured 48 hours post radiation using the MTT assay.
Cell Viability Assay. […] Cell viability was determined using the CellTiter 96 Aqueous One Solution cell proliferation assay (Promega, Madison, Wis.) as per the manufacturer's instructions and absorbance at 490 nm was determined using an MR580 Microelisa AutoReader (Dynatech, Alexandria, Va.). […]
Irradiation of cells. […] The dose rate at 50 cm from the x-ray source was 242 cGy/minute, as determined by multiple thermo luminescent dosimeter readings.

## control morpholino: mismatched control morpholino from GeneTools (CGTGACAGCCACGACCGACTGCGCA; all phosphorodiamidate morpholino (PMO)) [reference compound]
HUVEC [1]
  proliferation (BrdU incorporation / DNA synthesis) after 10 Gy: not
C57BL/6 wild type mice
  skin reaction / tissue damage of irradiated hindlimb: significant alopecia, dry and wet desquamation, and tissue ulceration with fibrous contracture

## NCCN(CCN)/[N+]([O-])=N/O [DETA/NO, reference compound]
HUVEC [2]
  survival / cell death of irradiated HUVEC (MTT): did not confer a significant survival advantage

## FIRGGMYEGKK [compound 604, control peptide, reference compound]
HUVEC [2]
  cell viability after graded doses of peptide and radiation: virtually no protection

## Nc1nc2c(nc(Br)n2[C@@H]2O[C@@H]3COP(=O)(O)O[C@H]3[C@H]2O)c(=O)[nH]1 [cell permeable cGMP analog, 8-Bromo cyclic guanine monophosphate, reference compound]
HUVEC [2]
  survival / cell death of irradiated HUVEC (MTT): did not confer a significant survival advantage

## HIGWKDFTAYRWRLS [C6d, radioprotective peptide]
HUVEC [2]
  cell viability after graded doses of peptide and radiation: protective effect

## CD36 morpholino: antisense morpholino specific for the TSP1 receptor CD36 (antisense ATGGGCTGTGACCGGAACTGTGGGC; all phosphorodiamidate morpholino (PMO)) [reference compound]
HUVEC [2]; morpholino 48 hours before radiation (FIG. 11E, F)
  cell viability post radiation after morpholino pretreatment: no radioprotection; also recorded: decrease in cellular viability similar to that of untreated cells
HUVEC [1]
  proliferation (BrdU incorporation / DNA synthesis) after 10 Gy: not seen

## FIRVVMYEGKK [7N3]
HUVEC [2]; antibody or peptide before radiation, 0-40 Gy (FIG. 11A-D)
  cell (mitochondrial) viability post irradiation: enhanced cell survival post-irradiation
HUVEC [2]
  cell viability after graded doses of peptide and radiation: protective effect
HAVSMC
  cell viability after radiation: profound radioprotective protective effect
B16F10 melanoma cells
  cell viability after 10 Gy: mild radioprotective effect
